Earlier results on 1 molecule are cited in patent publication US12083109B2, “Neurokinin antagonists and uses thereof” (California Institute of Technology, priority 2017, dated 2024).

SMILES strings stand for the structures. Read-outs that look alike come from different tables or passages of the source.

This data set has as its target T1, NK3R (Homo sapiens, UniProt P29371).
T1 construct: host or cells: human trial subjects
T1 sequence (P29371 1-465): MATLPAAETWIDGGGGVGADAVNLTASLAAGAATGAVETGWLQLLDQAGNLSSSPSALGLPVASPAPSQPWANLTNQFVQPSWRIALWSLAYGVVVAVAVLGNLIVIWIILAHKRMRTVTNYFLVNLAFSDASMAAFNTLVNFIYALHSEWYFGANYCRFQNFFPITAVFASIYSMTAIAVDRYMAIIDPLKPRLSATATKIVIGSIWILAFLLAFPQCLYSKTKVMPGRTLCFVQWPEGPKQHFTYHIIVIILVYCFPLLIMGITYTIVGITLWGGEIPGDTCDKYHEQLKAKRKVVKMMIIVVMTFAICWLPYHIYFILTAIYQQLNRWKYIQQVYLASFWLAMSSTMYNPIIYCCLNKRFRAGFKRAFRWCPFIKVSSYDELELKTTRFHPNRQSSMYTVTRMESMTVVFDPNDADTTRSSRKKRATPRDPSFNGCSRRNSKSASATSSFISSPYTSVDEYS
The following applies: cited from earlier work; for safety and tolerability in clinical trials: human, Phase I.

In the case of `CCC(NC(=O)c1c(O)c(-c2ccccc2)nc2ccccc12)c1ccccc1` (stereo not drawn) [Talnetant, 3-hydroxy-2-phenyl-N-(1-phenylpropyl)quinoline-4-carboxamide], the “safety and tolerability in clinical trials” value was “exhibited safety”. Further, the “efficacy in schizophrenia and major depressive disorder” value (human trials, Phase II/III) is on record as “lack of efficacy”. Besides, where the note is “listed as talnetant”, the “safety and tolerability in clinical trials” value is “safe and well-tolerated”.
